Consider 7 compounds from US20050170485A1, “Culture having phenol oxidase-like activity” (priority 2002, published 2005).

Format in all cases: biochemical
The test system of test [1] is culture of Flammulina velutipes strain IFO 30601. Description: Decolorization / oxidative degradation / oxidative polymerization of pigments and lignin by the culture. Conditions: for Specific Activity, Culture: reaction pH 7.0, 25° C., without sign = degradation or decolorization, minus = polymerization activity; for specificity of the culture compared with bilirubin oxidase from the genus Myrothecium: Table 3; for reaction of the substrate catalyzed by the culture (in words): neutral conditions. The source says: The decolorization activity on the respective dyes can be evaluated by measuring as the dye, Evans' Blue, Acid Blue 80, Remazol Brilliant Blue R and Acid Violet 17 in the step c) for their absorbance at 600 nm, 600 nm, 600 nm and 550 nm respectively. In addition, regarding the lignin, the oxidative degradation activity on the respective dyes can be evaluated by measuring the absorbance at 450 nm in the step c). The oxidative polymerization activity on the respective dyes can be evaluated by measuring as the dye, Indigo Carmine and Natural Orange 6 in the step c) for their absorbance at 600 nm and 450 nm respectively.
Next, chemical changes of various substrates generated by the action of the culture for the substrate specificity of the culture obtained in (2) of Example 1 was examined by determining a change in the absorbance of the buffer containing each substrate.
As the substrate, commercially available pigments (Evans' Blue, Acid Blue 80, Remazol Brilliant Blue R, Indigo Carmine, Acid Violet 17, Natural Orange) and lignin (trade name: Lignin Alkali, manufactured by Tokyo Kasei) were used.
(§1) Concretely, 950 μl of 105.3 mM sodium phosphate buffer (pH 7.0) containing a substrate adjusted to have a final concentration as shown in Table 2 was pre-incubated at 25° C. for 5 minutes. Next, 50 μl of the culture solution was added to the resulting product, and thereafter, the mixture was reacted in a cuvette. The absorbance for each substrate was determined at a measuring wavelength with a spectrophotometer (manufactured by Shimadzu Corporation, trade name: UV-2450). For the comparison, the examination was also made for bilirubin oxidase from a strain belonging to the genus Myrothecium in the same manner by replacing the above-mentioned buffer with 105.3 mM Tris-HCl buffer (pH 8.0).
(§2) Here, 1 U (unit) of the activity was defined as an amount for increasing the absorbance by 1 per one minute. In Table 3, a specific activity shown without a sign indicates degradation activity or decolorization activity, and a specific activity shown with—(minus) indicates polymerization activity.

The target of test [2] is T1, bilirubin oxidase from a strain belonging to the genus Myrothecium (Albifimbria verrucaria, UniProt Q12737).
T1 sequence (Q12737 39-572): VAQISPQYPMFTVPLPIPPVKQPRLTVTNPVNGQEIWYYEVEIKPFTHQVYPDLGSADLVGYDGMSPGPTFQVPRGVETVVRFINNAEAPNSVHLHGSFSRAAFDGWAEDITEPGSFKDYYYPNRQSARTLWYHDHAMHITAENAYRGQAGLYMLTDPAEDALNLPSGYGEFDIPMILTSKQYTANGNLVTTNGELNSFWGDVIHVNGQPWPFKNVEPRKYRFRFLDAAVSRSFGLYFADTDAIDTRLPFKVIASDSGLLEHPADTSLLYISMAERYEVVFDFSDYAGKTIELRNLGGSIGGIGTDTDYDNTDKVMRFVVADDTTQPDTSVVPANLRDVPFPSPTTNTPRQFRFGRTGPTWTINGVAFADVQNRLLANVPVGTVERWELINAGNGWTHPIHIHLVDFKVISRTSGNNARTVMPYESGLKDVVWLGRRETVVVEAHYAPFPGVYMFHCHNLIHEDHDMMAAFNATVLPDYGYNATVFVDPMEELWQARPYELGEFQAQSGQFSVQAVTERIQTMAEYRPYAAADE
In words: Decolorization / degradation / polymerization of pigments and lignin by bilirubin oxidase (comparison). Conditions: reaction pH 8.0; without sign = degradation or decolorization, minus = polymerization activity. How it is done:
as §1, §2

In test [3] the test system is culture of Flammulina velutipes strain IFO 30601. In words: Substrate specificity of the culture (phenol oxidase-like activity, Table 1). Conditions: pH 7.0; determined wavelength per substrate (Table 1).
Test [4] has the same test system. Description: Oxidative coupling reaction with 4-aminoantipyrine by the culture. Conditions: for activity of the culture for the substrate in words, oxidative coupling reaction: pH 7.0; for Specific Activity, Culture (oxidative coupling with 4-aminoantipyrine): reaction pH 7.0, 25° C., substrate 2.0 mM. How it is done:
Next, the oxidative coupling reaction of the culture obtained in (2) in Example 1 mentioned above was determined by using color development as an index by the oxidative condensation of the substrate (hydrogen donor) with 4-aminoantipyrine, catalyzed by the culture of the present invention.
As the hydrogen donors, there were used phenolic compounds (phenol, 2-methoxyphenol, 2,6-dimethoxyphenol, catechol, resorcinol, hydroquinone, pyrogallol, gallic acid, propyl gallate, 1-naphthol, catechin), aminophenolic compounds (o-aminophenol, m-aminophenol, p-aminophenol), diaminophenolic compounds (o-phenylenediamine, m-phenylenediamine, p-phenylenediamine), and heterocyclic compounds (5-hydroxyindole, 2,6-diaminopyridine).
The above-mentioned culture solution was added to a reaction system containing 4-aminoantipyrine and an optional hydrogen donor. Thereafter, the activity of the culture of the present invention was assayed by determining a change in absorbance at 490 nm for the phenolic compound, the diaminophenolic compound and the heterocyclic compound, or determining a change in absorbance at 450 nm for the aminophenolic compound. As to a substrate hardly soluble in water, there was used one obtained by dissolving the substrate in a small amount of dimethyl sulfoxide and diluting the resulting solution with deionized water to a desired concentration. In Table 4, DMSO is an abbreviation for dimethyl sulfoxide.
(§3) Concretely, 190 μl of 105.3 mM phosphate buffer (pH 7.0) containing 0.4 μmol of a substrate and 4.0 μmol of 4-aminoantipyrine was pre-incubated in wells of a 96-well microplate [manufactured by Corning, Costor (registered trademark) 3368] at 25° C. for 1 minute. Next, 10 μl of the above-mentioned culture solution was added to the resulting mixture, and thereafter, the mixture was incubated for 1 hour. A change in absorbance at 490 nm or 450 nm was determined for the resulting product. One unit (U) of the activity regarding the oxidative coupling reaction was defined as an amount for increasing the absorbance by 1 per one minute.

In test [5] the target is T2, bilirubin oxidase from the strain of the genus Myrothecium (Albifimbria verrucaria, UniProt Q12737).
T2 sequence (Q12737 39-572): T1 sequence (Q12737 39-572)
In words: Oxidative coupling reaction with 4-aminoantipyrine by bilirubin oxidase (comparison). Particulars: reaction pH 8.0, substrate 2.0 mM. How it is done:
as §3
In addition, for the comparison, the examination was made in the same manner for bilirubin oxidase from the strain of the genus Myrothecium except that the above-mentioned buffer was replaced with 105.3 mM Tris-HCl buffer (pH 8.0).

Test [6] has as its system culture of Flammulina velutipes strain IFO 30601. In words: Direct oxidation reaction by the culture. Conditions: for activity of the culture for the substrate in words, direct oxidation reaction: pH 7.0; for activity of the culture compared with bilirubin oxidase from the genus Myrothecium, direct oxidation / activity of the culture compared with laccase from Japanese lacquer, direct oxidation: pH 7.0, relative activities of Table 7; for Relative Activity, Culture (direct oxidation): reaction pH 7.0, 2-chloro 1,4-phenylenediamine = 100. How it is done: Further, the direct oxidation reaction of the culture obtained in the above-mentioned example was determined by using color development due to oxidative polymerization of a substrate generated by the direct action of the culture of the present invention on the substrate as an index.
As the substrates, there were used diaminophenolic compounds (2-chloro 1,4-phenylenediamine, p-phenylenediamine, 2,5-diaminotoluene, N-phenyl-p-phenylenediamine, toluylene-3,4-diamine, m-phenylenediamine), aminophenolic compounds (o-aminophenol, m-aminophenol, 5-amino-o-cresol, p-aminophenol, p-methylaminophenol), and phenolic compounds (2,6-dimethoxyphenol, catechol, resorcinol, hydroquinone, pyrogallol, gallic acid, propyl gallate, 1-naphthol, […], 2,3,4-trihydroxybenzophenone, 2,3,4,4-tetrahydroxybenzophenone). As to a substrate hardly soluble in water, there was used one obtained by dissolving the substrate in a small amount of dimethyl sulfoxide and diluting the resulting solution with deionized distilled water to a desired concentration. In Table 6, %” indicates volume/volume %.
(§4) Concretely, 180 μl of 0.89 mM sodium phosphate buffer (pH 7.0) containing […] substrate was pre-incubated in wells of a 96-well microplate [manufactured by Corning, Costor (registered trademark) 3368] at 25° C. for 1 minute. Next, 20 μl of the above-mentioned culture solution was added to the resulting mixture. A change in absorbance at 490 nm, 450 nm or 405 nm was determined for the resulting product, depending on the substrate. Here, 1 U (unit) of the activity regarding the direct oxidative reaction was defined as an amount for increasing the absorbance by 1 per one minute.

Test [7] has as its system laccase from Japanese lacquer. In words: Direct oxidation reaction by laccase (comparison). Particulars: reaction pH 7.0; 2-chloro 1,4-phenylenediamine = 100. As to the method: Next, 20 μl of the above-mentioned culture solution was added to the resulting mixture. A change in absorbance at 490 nm, 450 nm or 405 nm was determined for the resulting product, depending on the substrate. Here, 1 U (unit) of the activity regarding the direct oxidative reaction was defined as an amount for increasing the absorbance by 1 per one minute.
(§5) In addition, for the comparison, the substrate specificities at pH 7.0 for laccase from Japanese lacquer and bilirubin oxidase from the strain belonging to the genus Myrothecium were also examined in the same manner.

For test [8], the target named is T3, bilirubin oxidase from the strain belonging to the genus Myrothecium (Albifimbria verrucaria, UniProt Q12737).
T3 sequence (Q12737 39-572): T1 sequence (Q12737 39-572)
In words: Direct oxidation reaction by bilirubin oxidase (comparison). Particulars: reaction pH 7.0; 2-chloro 1,4-phenylenediamine = 100. Further details: concentration or dose not given beside the values. How it is done: as §4, §5
The relative activity (%) for each substrate is shown in Table 7, in which the measured value for a case where a representative chemical dye 2-chloro 1,4-phenylenediamine was used as a substrate is 100.

Take `Cc1cc(C)c(S(=O)(=O)[O-])c(C)c1Nc1ccc(Nc2c(C)cc(C)c(S(=O)(=O)[O-])c2C)c2c1C(=O)c1ccccc1C2=O.[Na+].[Na+]` [Acid Blue 80]: the “Specific Activity, Culture” value in test [1] is listed as 0.30 U/mg Protein. Besides, the “Specific Activity, Bilirubin Oxidase from Strain Belonging to Genus Myrothecium” value in test [2] was 0.39 U/mg Protein.

Take `CCN(CC)c1ccc(C(=C2C=CC(=[N+](CC)Cc3cccc(S(=O)(=O)[O-])c3)C=C2)c2ccc(N(CC)Cc3cccc(S(=O)(=O)[O-])c3)cc2)cc1.[Na+]` [Acid Violet 17]: in test [1], the “specificity of the culture compared with bilirubin oxidase from the genus Myrothecium” value is “significantly differs”; the “reaction of the substrate catalyzed by the culture (in words)” value is on record as “oxidative decolorization reaction”; the “Specific Activity, Culture” value was determined as 0.12 U/mg Protein. Also, the “Specific Activity, Bilirubin Oxidase from Strain Belonging to Genus Myrothecium” value in test [2] was −0.40 U/mg Protein.

For `Cc1cc(-c2ccc(/N=N/c3ccc4c(S(=O)(=O)[O-])cc(S(=O)(=O)[O-])c(N)c4c3O)c(C)c2)ccc1/N=N/c1ccc2c(S(=O)(=O)[O-])cc(S(=O)(=O)[O-])c(N)c2c1O.[Na+].[Na+].[Na+].[Na+]` [Evans' Blue], the “Specific Activity, Culture” value in test [1] was 0.32 U/mg Protein. Besides, in test [2], the “Specific Activity, Bilirubin Oxidase from Strain Belonging to Genus Myrothecium” value is 1.22 U/mg Protein.

As for `O=C1/C(=C2\Nc3ccc(S(=O)(=O)[O-])cc3C2=O)Nc2ccc(S(=O)(=O)[O-])cc21.[Na+].[Na+]` [Indigo Carmine], in test [1], the “specificity of the culture compared with bilirubin oxidase from the genus Myrothecium” value is given as “significantly differs”; the “reaction of the substrate catalyzed by the culture (in words)” value is given as “oxidative polymerization reaction”; the “Specific Activity, Culture” value is given as −0.22 U/mg Protein. Also, the “Specific Activity, Bilirubin Oxidase from Strain Belonging to Genus Myrothecium” value in test [2] is 0.46 U/mg Protein.

Take `Nc1ccccc1O` [o-Aminophenol]: the “U (activity of the culture on the substrate)” value in test [3] worked out at 0.262 U. In addition, in test [4], the “activity of the culture for the substrate in words, oxidative coupling reaction” value is “especially high activity” and the “Specific Activity, Culture (oxidative coupling with 4-aminoantipyrine)” value came to 22.4 U/mg Protein. Besides, in test [5], the “Specific Activity, Bilirubin Oxidase from Strain Belonging to Genus Myrothecium (oxidative coupling with 4-aminoantipyrine)” value was 15.1 U/mg Protein. Besides, in test [6], the “activity of the culture for the substrate in words, direct oxidation reaction” value (“activity … direct oxidation reaction” below) was “especially high activity”; the “activity of the culture compared with bilirubin oxidase from the genus Myrothecium, direct oxidation” value is “even higher activity”; the “activity of the culture compared with laccase from Japanese lacquer, direct oxidation” value is reported as “even higher activity”; the “Relative Activity, Culture (direct oxidation)” value (from here on “Relative Activity, Culture”) is listed as 650%. Further, the “Relative Activity, Laccase from Japanese Lacquer (direct oxidation)” value (“Relative Activity, Laccase” for short) in test [7] is 103%. Also, in test [8], the “Relative Activity, Bilirubin Oxidase from Strain Belonging to Genus Myrothecium (direct oxidation)” value (“Relative Activity, Bilirubin Oxidase” for short) worked out at 86%.

As to `Nc1ccc(O)cc1` [p-Aminophenol], the “U (activity of the culture on the substrate)” value in test [3] is reported as 0.072 U. In test [4], the “activity of the culture for the substrate in words, oxidative coupling reaction” value is given as “especially high activity” and the “Specific Activity, Culture (oxidative coupling with 4-aminoantipyrine)” value amounted to 12.7 U/mg Protein. The “Specific Activity, Bilirubin Oxidase from Strain Belonging to Genus Myrothecium (oxidative coupling with 4-aminoantipyrine)” value in test [5] turned out to be 7.0 U/mg Protein. Further, in test [6], the “activity … direct oxidation reaction” value is “especially high activity”; the “activity of the culture compared with bilirubin oxidase from the genus Myrothecium, direct oxidation” value is given as “higher activity”; the “activity of the culture compared with laccase from Japanese lacquer, direct oxidation” value is reported as “higher activity”; the “Relative Activity, Culture” value is listed as 235%. In test [7], the “Relative Activity, Laccase” value came out at 109%. Also, the “Relative Activity, Bilirubin Oxidase” value in test [8] came to 70%.

As to `Nc1ccc(N)cc1` [p-Phenylenediamine], in test [3], the “U (activity of the culture on the substrate)” value came out at 0.101 U. For the same compound, the “Specific Activity, Culture (oxidative coupling with 4-aminoantipyrine)” value in test [4] is on record as 20.9 U/mg Protein. For the same compound, the “Specific Activity, Bilirubin Oxidase from Strain Belonging to Genus Myrothecium (oxidative coupling with 4-aminoantipyrine)” value in test [5] is given as 11.1 U/mg Protein. Further, in test [6], the “activity … direct oxidation reaction” value is “especially high activity”; the “activity of the culture compared with bilirubin oxidase from the genus Myrothecium, direct oxidation” value is “higher activity”; the “activity of the culture compared with laccase from Japanese lacquer, direct oxidation” value is reported as “higher activity”; the “Relative Activity, Culture” value came out at 388%. Further, in test [7], the “Relative Activity, Laccase” value came out at 142%. For the same compound, the “Relative Activity, Bilirubin Oxidase” value in test [8] was 82%.
